PMC9450014, “The evaluation of ADME and pharmacokinetic properties of decoquinate derivatives for the treatment of malaria” (Frontiers in Pharmacology, 2022)
“And” between values parts separate entries of the source, which are not always exact repeats. Equal values may be shown once. Read-outs that look alike come from different tables or passages of the source.

Legend:
[1] = Passive permeability, parallel artificial membrane permeation assay (PAMPA); assay type: in vitro ADME; conditions: donor pH 6.5, acceptor pH 7.4, 4 h, read-out: Permeability (LogPapp) (converted)
Description: A parallel artificial membrane permeation assay (PAMPA) was used to assess the passive permeability of compounds with a 96-well MultiScreen filter plate ([…] pore size, Millipore). The filter plate was precoated with 5% hexadecane in hexane. Stock solutions of compounds were diluted to 1 mM in a donor buffer (pH 6.5). Lucifer yellow was added to the apical wells of the precoated MultiScreen plate containing compound donor solution. The donor buffer solutions were spiked with each test compound (1 mM). The acceptor-buffer solution was prepared by adding 10 μL DMSO to 990 μL acceptor buffer (pH 7.4) and 250 μL were added to the basolateral (acceptor) wells. The donor plate was carefully inserted into the acceptor plate and incubated at room temperature for 4 h. After the incubation period, 50 μL of samples from the acceptor plate were transferred to a round bottom 96-well plate, together with 30 μL of donor buffer for matrix matching. Theoretical equilibrium samples for each test compound were prepared by adding 150 μL of donor solutions to 250 μL acceptor solutions and left at room temperature. These theoretical equilibrium samples represent complete transfer of the compound into the donor well. For the theoretical equilibrium samples, 80 μL were added to the analysis plate. Lastly, 160 μL of the internal standard carbamazepine (0.1 μM) was added to all acceptor and equilibrium samples. A portion of the sample containing Lucifer yellow was analyzed on a BioRad iMark^TM Microplate Absorbance Reader (BioRad, Hercules, CA, United States; excitation 490 nm, emission 510–570 nm) to determine that P app was within the acceptable range (<50 nm/s). Samples were analysed using reverse phase Gemini NX-C18 column (5 μM, 2.1 mm × 50 mm) with a Shimadzu HPLC coupled with an AB Sciex 3200 Q TRAP MS). The Papp for each compound was determined using. C=VD × VA/(VD+VA) ×A×t where VA = volume of donor compartment (0.15 cm^3), VD = volume of acceptor compartment (0.25 cm^3), A = accessible filter area (0.24 cm^2) and t = incubation time (14,400 s). […]

[2] = Lipophilicity, 1-octanol/phosphate buffer pH 7.4 (LogD7.4); assay type: physicochemical
Description: Stock solutions ([…]) of compounds were diluted to 100 μM in 96-well deep-well plate containing 1-octanol and phosphate buffer at pH 7.4. The plate was agitated on an orbital shaker at 750 rpm for 2 h. The organic and buffer layers of each well were transferred separately to a new analysis plate. The samples were analysed with the HPLC-diode array detection as described for kinetic solubility. Samples from both layers were analysed to determine LogD7.4 values.

[3] = tested on: Pf NF54; conditions: ref Beteck et al., 2018, cited from earlier work
[4] = In vivo pharmacokinetics, oral administration; design: species or system C57BL/6 mice; conditions: mice
Description: Healthy C57BL/6 mice each weighing approximately 25 g were maintained at the University of Cape Town animal facility. Mice were housed in 27 × 21 × 28 cm cages (n = 3) under controlled environmental conditions at 22 ± 2°C, humidity of 55 ± 15% and a 12-hour light/dark cycle. Food and water were available ad libitum. Mice were acclimatised to the experimental environment for 4–5 days prior to initiating the experiments. RMB005, −059 and −060 were prepared in an aqueous solution of HPMC containing 0.2% Tween 80. The weighed compound was sonicated and vortexed to obtain a homogenous suspension. Oral dosing of 20 mg/kg was achieved via oral gavage. The total volume per administration was 200 μL. Blood samples were collected post-dose in lithium heparin microvials via tail bleeding at predetermined intervals at 0.5, 1, 3, 5, 8, 10, and 24 h. Samples were gently vortexed and stored at −80°C until analysis. A quantitative LC-MS/MS assay was used to determine whole-blood concentrations of RMB005, −059 and −060. Whole blood samples (20 μL) were treated with 100 μL ice cold acetonitrile containing the compound RMB073 used previously for determination of whole blood concentrations in analysis of TB-active compounds, as internal standard (200 ng/ml) ([Tanner et al., 2019]). The mixture was vortexed vigorously for 1 min, and 5 µL of the supernatant were injected onto the analytical column following centrifugation (5,590 g for 5 min). Gradient elution was carried out using a Gemini NX-C18 analytical column (5 μm, 2.1 mm × 50 mm). The aqueous mobile phase consisted of 5 mm ammonium acetate with 0.1% acetic acid in deionised water, while the organic phase consisted of 0.1% acetic acid in acetonitrile. A Shimadzu HPLC and reverse phase Gemini NX-C18 column coupled to an AB Sciex 3200 Q TRAP MS was operated at unit resolution in the multiple reaction monitoring (MRM) mode. […] The calibration standards ranged from 2 ng/mL to 3,000 ng/mL for RMB005, and 2 ng/mL to 4,000 ng/mL for RMB059, −060 and DQ. Drug concentration versus time plots for each compound were used to determine maximal drug concentration C max, time T max to reach C max, elimination half-life t 1/2 and the area under the concentration-time curve from time zero to infinity, AUC0-inf. From these values the following PK parameters—clearance CL, volume of distribution (Vd) and oral bioavailability (BA) were determined using the non-compartmental analysis Microsoft Excel Add-In PKSolver ([Zhang et al., 2010]).

[5] = Plasma stability; assay type: in vitro ADME; conditions: human plasma
Description: Stock solutions of compounds in DMSO were used to spike pooled human plasma. Samples were transferred in duplicate to 6 different wells of a 96-deep well plate. An aliquot of each sample was immediately quenched with ice cold acetonitrile containing the internal standard carbamazepine (0.1 μM), after which the plate was incubated in a water bath (37°C for 1 h). Aliquots of samples were removed at 5, 15, 40, 60, and 180 min and quenched with ice cold acetonitrile. After samples of the final time point were precipitated, the supernatant was transferred to a round bottom 96-well plate for analysis by LC-MS/MS using a reverse phase Gemini NX-C18 column (5 μM, 2.1 mm × 50 mm) with a Shimadzu HPLC coupled with an AB Sciex 3200 Q TRAP MS). The peak area ratios were used to calculate the amount of parent compound remaining and t1/2 in plasma, using the following equations.
% Parent remaining % Parent= Normalised peak area of sample at timepoint/Normalised peak area of sample at t=0 x 100
Predicted t1/2 t1/2= −0.693/λ Where λ is the slope of the Ln % parent remaining vs. time curve.

## CCCCCCCCCCOc1cc2c(=O)c(C(=O)NCCOCCO)c[nH]c2cc1OCC [RMB005]
[1]
  Papp at 4 h, 1 mM: 0.501 ×10⁻⁶ cm/s
[2]
  logD at 2 h: 3.2
[3]; Pf NF54, read-out: NF54 IC50 (line in the PK figures, in vitro IC50 in the discussion)
  IC50: 40 nM
[3]; read-out: IC50 against Pf NF54
  IC50: 40.4 nM
[4]; C57BL/6, mouse, whole blood, po, 20 mg/kg, po 20 mg/kg, dosed compound measured
  Tmax: ~42 min
[4]; C57BL/6, mouse, po 20 mg/kg, whole blood, dosed compound measured, read-out: Cmax
  Cmax: 490 ± 20 nM
[4]; po 20 mg/kg vs iv, 20 mg/kg
  BA: 4% and 4 ± 0.3%
[4]; po 20 mg/kg, whole blood, dosed compound measured, 20 mg/kg
  AUC0-∞: 59 µmol·min/L and 59 ± 2 µmol·min/L
[5]
  Plasma stability (in words): good plasma stability
[5]; listed as RMB-005
  Plasma stability (in words): relatively stable
[5]; pooled plasma, 37°C
  half-life: > 150 min
